Data as given in patent US9969752B2, “Inhibitors of HIF prolyl hydroxylase” (MERCK SHARP & DOHME CORP., priority 2014, dated 2018).

Biological target: T1, Human HIF-PHD2 (Homo sapiens, UniProt Q9GZT9)
T1 construct: FLAG-tagged full length PHD2 expressed in and purified from baculovirus-infected Sf9 cells; FLAG; made in house; host or cells: baculovirus-infected Sf9 cells
Experiment: Inhibition of the hydroxylation of a HIF peptide by PHD2 (time resolved fluorescence, 384-well)
Type: biochemical
Settings: FLAG-tagged full length PHD2; 0.2 μM 2-oxoglutarate, 0.5 μM HIF-1α peptide; 45 minutes at room temperature; read-out: Human HIF-PHD2 IC50

T1 sequence (Q9GZT9 whole entry): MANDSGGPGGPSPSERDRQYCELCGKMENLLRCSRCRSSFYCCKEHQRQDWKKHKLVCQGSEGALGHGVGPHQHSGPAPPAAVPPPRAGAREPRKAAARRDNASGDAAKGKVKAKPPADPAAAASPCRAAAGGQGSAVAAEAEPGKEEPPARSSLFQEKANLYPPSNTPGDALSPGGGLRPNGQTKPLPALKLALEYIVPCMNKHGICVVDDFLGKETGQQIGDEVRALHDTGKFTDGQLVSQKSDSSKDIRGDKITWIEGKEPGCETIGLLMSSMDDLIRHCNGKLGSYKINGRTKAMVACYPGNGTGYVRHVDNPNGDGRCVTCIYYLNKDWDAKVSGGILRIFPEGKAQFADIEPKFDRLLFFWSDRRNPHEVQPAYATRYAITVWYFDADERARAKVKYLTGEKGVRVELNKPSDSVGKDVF

| IC50 | Compound |
| --- | --- |
| 5.1 nM | N#Cc1ccc2c3c1c(O)c(C(=O)NCC(=O)O)c(=O)n3C(c1ccc(C(F)(F)F)cc1)CS2 (stereo not drawn) [Example 99, 2-(8-Cyano-7-hydroxy-5-oxo-3-(4-(trifluoromethyl)phenyl)-3,5-dihydro-2H-[1,4]thiazino[2,3,4-ij]quinoline-6-carboxamido)acetic acid] |
| 32 nM | O=C(O)CNC(=O)c1c(O)c2cccc3c2n(c1=O)C(c1ccc(C(F)(F)F)cc1)CS3 (stereo not drawn) [Example 100, 2-(7-Hydroxy-5-oxo-3-(4-(trifluoromethyl)phenyl)-3,5-dihydro-2H-[1,4]thiazino[2,3,4-ij]quinoline-6-carboxamido)acetic acid] |
| 8.6 nM | O=C(O)CNC(=O)c1c(O)c2cccc3c2n(c1=O)C(c1ccc(C(F)(F)F)cc1)CS3(=O)=O (stereo not drawn) [Example 101, 2-(7-hydroxy-1,1-dioxido-5-oxo-3-(4-(trifluoromethyl)phenyl)-3,5-dihydro-2H-[1,4]thiazino[2,3,4-ij]quinoline-6-carboxamido)acetic acid] |
| 5.8 nM | N#Cc1cc2c3c(c1)c(O)c(C(=O)NCC(=O)O)c(=O)n3C(c1ccc(C(F)(F)F)cc1)CS2 (stereo not drawn) [Example 102, 2-(9-Cyano-7-hydroxy-5-oxo-3-(4-(trifluoromethyl)phenyl)-3,5-dihydro-2H-[1,4]thiazino[2,3,4-ij]quinoline-6-carboxamido)acetic acid] |
| 3.4 nM | O=C(O)CNC(=O)c1c(O)c2cccc3c2n(c1=O)CC(c1ccc(C(F)(F)F)nc1)S3 (stereo not drawn) [Example 103, 2-(7-Hydroxy-5-oxo-2-(6-(trifluoromethyl)pyridin-3-yl)-3,5-dihydro-2H-[1,4]thiazino[2,3,4-ij]quinoline-6-carboxamido)acetic acid] |
| 6.3 nM | O=C(O)CNC(=O)c1c(O)c2cccc3c2n(c1=O)CC(c1ccc(C(F)(F)F)nc1)S3(=O)=O (stereo not drawn) [Example 104, 2-(7-Hydroxy-1,1-dioxido-5-oxo-2-(6-(trifluoromethyl)pyridin-3-yl)-3,5-dihydro-2H-[1,4]thiazino[2,3,4-ij]quinoline-6-carboxamido)acetic acid] |
| 5.1 nM | O=C(O)CNC(=O)c1c(O)c2cccc3c2n(c1=O)C(c1cncs1)CS3 (stereo not drawn) [Example 105, 2-(7-Hydroxy-5-oxo-3-(thiazol-5-yl)-3,5-dihydro-2H-[1,4]thiazino[2,3,4-ij]quinoline-6-carboxamido)acetic acid] |
| 27 nM | O=C(O)CNC(=O)c1c(O)c2cccc3c2n(c1=O)C(c1ccc(C(F)(F)F)cc1)CN3 (stereo not drawn) [Example 106, 2-(7-Hydroxy-5-oxo-3-(4-(trifluoromethyl)phenyl)-1,2,3,5-tetrahydropyrido[1,2,3-de]quinoxaline-6-carboxamido)acetic acid] |
| 68 nM | CN1CC(c2ccc(C(F)(F)F)cc2)n2c(=O)c(C(=O)NCC(=O)O)c(O)c3cccc1c32 (stereo not drawn) [Example 107, 2-(7-Hydroxy-1-methyl-5-oxo-3-(4-(trifluoromethyl)phenyl)-1,2,3,5-tetrahydropyrido[1,2,3-de]quinoxaline-6-carboxamido)acetic acid] |
| 6.5 nM | O=C(O)CNC(=O)c1c(O)c2cccc3c2n(c1=O)CC(c1ccc(C(F)(F)F)cc1)N3 (stereo not drawn) [Example 108, 2-(7-Hydroxy-5-oxo-2-(4-(trifluoromethyl)phenyl)-1,2,3,5-tetrahydropyrido[1,2,3-de]quinoxaline-6-carboxamido)acetic acid] |
| 4.2 nM | N#Cc1ccc2c(O)c(C(=O)NCC(=O)O)c(=O)n3c2c1NC(c1cncs1)C3 (stereo not drawn) [Example 109, 2-(10-Cyano-7-hydroxy-5-oxo-2-(thiazol-5-yl)-1,2,3,5-tetrahydropyrido[1,2,3-de]quinoxaline-6-carboxamido)acetic acid] |
| 12 nM | O=C(O)CNC(=O)c1c(O)c2cccc3c2n(c1=O)CC(c1cncs1)N3 (stereo not drawn) [Example 110, 2-(7-Hydroxy-5-oxo-2-(thiazol-5-yl)-1,2,3,5-tetrahydropyrido[1,2,3-de]quinoxaline-6-carboxamido)acetic acid] |
